Columns and labels:
head/neck tumors = details: mouse, in vivo; cited from earlier work
[1] = tested on: Weissella viridescens NRRL B-1951; experiment: HPLC of tube supernatants: glucose consumption and organic acid production; format: cell-based; details: for acetic acid in fermentation media: MRS media originally contained 7% acetate
Experimental: Each tube was sampled (1.5 mL conical polypropylene centrifuge tubes) and centrifuged at 10 kRPM for 10 minutes to remove and suspended cells. The resulting supernatants were filtered (0.2 μm nylon), diluted to 0.5% solids, and analyzed by high pressure liquid chromatography (HPLC, Agilent 1100, refractive index detector and BioRad Ainex HPX-87H column) for consumption of glucose and production of organic acids.
Note that the MRS media originally contained 7% acetate; therefore 7% should be subtracted from the values for acetate in Table 8 to ascertain the amount of acetate generated during the assay.

[2] = tested on: Weissella viridescens NRRL B-1951; experiment: tube assay, W. viridescens growth with nisin A or Z (absorbance); format: cell-based; details: 15 Hr
Experimental: 100 g De-Man, Rogosa and Sharpe (MRS) media was prepared in a 500 mL Erlenmeyer to contain 5.5% solids in deionized water (18.2 MΩ, Hydro Service and Supplies. Gaithersburg, Md.). The media was autoclaved (121° C. 15 min), cooled, and inoculated with 1 mL (0.5 mL culture+0.5 mL glycerol, 40%; frozen at −78° C.) of Weissella viridescens NRRL B-1951 (test strain). The culture was incubated at 31° C. overnight (15 Hr).
The next day, stock solutions of either nisin A or Z were prepared in deionized water to contain 31.3 and 33.7 μg/g of each peptide.
100 g MRS media was prepared to contain 5.5% solids. Two sets (one set each for nisin A and nisin Z) of eight Hach-type tubes (Kimble Chase 45066-16100) were prepared. Within each set, in order was added 5.00, 4.95, 4.90, 4.75, 4.50, 4.00, 3.50 and 3.00 g MRS media. The tubes were sealed and autoclaved.
To each tube was added, of the appropriate nisin stock, 0.00, 0.05, 0.10, 0.25, 0.50, 1.00, 1.50, and 2.00 g. Each tube was inoculated with 0.25 g of late-log W. viridescens NRRL B-1951 culture. The tubes were sealed and the absorbance at 600 nm was quickly measured (Hach DR900). The tubes were segregated by set and incubated at 31° C. overnight (15 Hr).
Each tube was thoroughly mixed to suspend settled cells and the absorbance was measured again at 600 nm. The final absorbance values for each sample were corrected for their respective background (taken just after inoculation, scattered light from added cells). The corrected absorption values were a measure of W. viridescens growth.
As indicated above, the absorbance of the culture was measured again at 600 nm as a measure of W. viridescens growth, and the absorbance values for each sample were corrected for their respective background. These corrected absorption values plotted against nisin concentration and minimum inhibiting concentration approximated via regression.
The results were fit via four parameter logistic regression (4PLR), combined into a continuous function with a second assay set (0.65-9.99 μg/g), and are shown in FIG. 11A.

Sequence: MSTKDFNLDLVSVSKKDSGASPRITSISLCTPGCKTGALMGCNMKTATCNCSIHVSN [nisin Z]
- effect on tumors (in words) (head/neck tumors): can reduce tumorigenesis in mice
- Maltotriose in fermentation media ([1]; tube Z2, nisin Z 0.34 μg/g): 0.282 %/brix
- ethanol in fermentation media ([1]; tube Z2, nisin Z 0.34 μg/g): 0.057 %/brix
- formic acid in fermentation media ([1]; tube Z2, nisin Z 0.34 μg/g): 0.303 %/brix
- fructose in fermentation media ([1]; tube Z2, nisin Z 0.34 μg/g): 0.000 %/brix
- glucose in fermentation media ([1]; tube Z2, nisin Z 0.34 μg/g): 22.988 %/brix
- glycerol in fermentation media ([1]; tube Z2, nisin Z 0.34 μg/g): 0.343 %/brix
- lactic acid in fermentation media ([1]; tube Z2, nisin Z 0.34 μg/g): 6.742 %/brix
- maltose in fermentation media ([1]; tube Z2, nisin Z 0.34 μg/g): 0.722 %/brix
- acetic acid in fermentation media ([1]; tube Z2, nisin Z 0.34 μg/g): 8.273 %/brix
- Maltotriose in fermentation media ([1]; tube Z4, nisin Z 1.58 μg/g): 0.265 %/brix
- ethanol in fermentation media ([1]; tube Z4, nisin Z 1.58 μg/g): 0.083 %/brix
- formic acid in fermentation media ([1]; tube Z4, nisin Z 1.58 μg/g): 0.309 %/brix
- fructose in fermentation media ([1]; tube Z4, nisin Z 1.58 μg/g): 0.000 %/brix
- glucose in fermentation media ([1]; tube Z4, nisin Z 1.58 μg/g): 24.153 %/brix
- glycerol in fermentation media ([1]; tube Z4, nisin Z 1.58 μg/g): 0.337 %/brix
- lactic acid in fermentation media ([1]; tube Z4, nisin Z 1.58 μg/g): 5.081 %/brix
- maltose in fermentation media ([1]; tube Z4, nisin Z 1.58 μg/g): 1.007 %/brix
- acetic acid in fermentation media ([1]; tube Z4, nisin Z 1.58 μg/g): 8.247 %/brix
- Maltotriose in fermentation media ([1]; tube Z5, nisin Z 3.19 μg/g): 0.311 %/brix
- ethanol in fermentation media ([1]; tube Z5, nisin Z 3.19 μg/g): 0.067 %/brix
- formic acid in fermentation media ([1]; tube Z5, nisin Z 3.19 μg/g): 0.281 %/brix
- fructose in fermentation media ([1]; tube Z5, nisin Z 3.19 μg/g): 0.000 %/brix
- glucose in fermentation media ([1]; tube Z5, nisin Z 3.19 μg/g): 24.698 %/brix
- glycerol in fermentation media ([1]; tube Z5, nisin Z 3.19 μg/g): 0.321 %/brix
- lactic acid in fermentation media ([1]; tube Z5, nisin Z 3.19 μg/g): 2.995 %/brix
- maltose in fermentation media ([1]; tube Z5, nisin Z 3.19 μg/g): 0.750 %/brix
- acetic acid in fermentation media ([1]; tube Z5, nisin Z 3.19 μg/g): 8.026 %/brix
- Maltotriose in fermentation media ([1]; tube Z6, nisin Z 6.31 μg/g): 0.247 %/brix
- ethanol in fermentation media ([1]; tube Z6, nisin Z 6.31 μg/g): 0.059 %/brix
- formic acid in fermentation media ([1]; tube Z6, nisin Z 6.31 μg/g): 0.267 %/brix
- fructose in fermentation media ([1]; tube Z6, nisin Z 6.31 μg/g): 0.000 %/brix
- glucose in fermentation media ([1]; tube Z6, nisin Z 6.31 μg/g): 25.353 %/brix
- glycerol in fermentation media ([1]; tube Z6, nisin Z 6.31 μg/g): 0.320 %/brix
- lactic acid in fermentation media ([1]; tube Z6, nisin Z 6.31 μg/g): 1.351 %/brix
- maltose in fermentation media ([1]; tube Z6, nisin Z 6.31 μg/g): 0.726 %/brix
- acetic acid in fermentation media ([1]; tube Z6, nisin Z 6.31 μg/g): 7.969 %/brix
- Maltotriose in fermentation media ([1]; tube Z7, nisin Z 9.54 μg/g): 0.291 %/brix
- ethanol in fermentation media ([1]; tube Z7, nisin Z 9.54 μg/g): 0.065 %/brix
- formic acid in fermentation media ([1]; tube Z7, nisin Z 9.54 μg/g): 0.263 %/brix
- fructose in fermentation media ([1]; tube Z7, nisin Z 9.54 μg/g): 0.000 %/brix
- glucose in fermentation media ([1]; tube Z7, nisin Z 9.54 μg/g): 25.501 %/brix
- glycerol in fermentation media ([1]; tube Z7, nisin Z 9.54 μg/g): 0.335 %/brix
- lactic acid in fermentation media ([1]; tube Z7, nisin Z 9.54 μg/g): 1.431 %/brix
- maltose in fermentation media ([1]; tube Z7, nisin Z 9.54 μg/g): 0.895 %/brix
- acetic acid in fermentation media ([1]; tube Z7, nisin Z 9.54 μg/g): 8.026 %/brix
- Maltotriose in fermentation media ([1]; tube Z8, nisin Z 12.61 μg/g): 0.318 %/brix
- ethanol in fermentation media ([1]; tube Z8, nisin Z 12.61 μg/g): 0.148 %/brix
- formic acid in fermentation media ([1]; tube Z8, nisin Z 12.61 μg/g): 0.299 %/brix
- fructose in fermentation media ([1]; tube Z8, nisin Z 12.61 μg/g): 0.000 %/brix
- glucose in fermentation media ([1]; tube Z8, nisin Z 12.61 μg/g): 25.740 %/brix
- glycerol in fermentation media ([1]; tube Z8, nisin Z 12.61 μg/g): 0.346 %/brix
- lactic acid in fermentation media ([1]; tube Z8, nisin Z 12.61 μg/g): 1.652 %/brix
- maltose in fermentation media ([1]; tube Z8, nisin Z 12.61 μg/g): 0.876 %/brix
- acetic acid in fermentation media ([1]; tube Z8, nisin Z 12.61 μg/g): 8.261 %/brix
- 91516 ABS 610f ([2]; tube Z2, nisin Z 0.34 μg/g): 1.618
- Corrected ABS 610rs ([2]; tube Z2, nisin Z 0.34 μg/g): 1.146
- 91516 ABS 610f ([2]; tube Z3, nisin Z 0.77 μg/g): 1.526
- Corrected ABS 610rs ([2]; tube Z3, nisin Z 0.77 μg/g): 1.062
- 91516 ABS 610f ([2]; tube Z4, nisin Z 1.58 μg/g): 1.296
- Corrected ABS 610rs ([2]; tube Z4, nisin Z 1.58 μg/g): 0.841
- 91516 ABS 610f ([2]; tube Z5, nisin Z 3.19 μg/g): 0.801
- Corrected ABS 610rs ([2]; tube Z5, nisin Z 3.19 μg/g): 0.359
- 91516 ABS 610f ([2]; tube Z6, nisin Z 6.31 μg/g): 0.426
- Corrected ABS 610rs ([2]; tube Z6, nisin Z 6.31 μg/g): 0.003
- 91516 ABS 610f ([2]; tube Z7, nisin Z 9.54 μg/g): 0.384
- Corrected ABS 610rs ([2]; tube Z7, nisin Z 9.54 μg/g): 0.001
- 91516 ABS 610f ([2]; tube Z8, nisin Z 12.61 μg/g): 0.386
- Corrected ABS 610rs ([2]; tube Z8, nisin Z 12.61 μg/g): 0.001
